Data reported in patent publication US20070276034A1, “Compounds, compositions and methods for the treatment of synucleinopathies” (priority 2002, published 2007).

Columns and labels:
[1] = test system: A53T α-synuclein-expressing BE-M17 cells; assay: XTT Cytotoxicity assay - protection against rotenone-induced cytotoxicity; type: cell-based; conditions: 40-44 hours
Excerpt: (§1) Therefore, to test the therapeutic potential of the compounds, two cell-based assays were utilized. In both assays, rotenone is used to induce mitochondrial oxidative stress and α-synuclein aggregation. The first assay utilizes the binding of the fluorescent dye thioflavin S to structures with high β-sheet content including α-synuclein fibrils. Therefore, quantitative assessment of the extent of thioflavin S-positive staining of fixed cells is used to test the ability of the compounds to decrease the amount of α-synuclein aggregates. In the second assay, cell viability is assessed using the XTT Cytotoxicity assay, which is dependent on intact, functional mitochondria in live cells. Thus, the XTT Cytotoxicity assay is used to test the ability of the compounds to ameliorate the mitochondrial toxicity and resulting loss of viability associated with the accumulation of α-synuclein aggregates. Phrased another way, the XTT Cytotoxicity assay is used to gauge the compounds neuroprotective efficacy. These studies are presented in the following examples.
(§2) BE-M17 human neuroblastoma cells stably transfected with A53T-mutant human α-synuclein were obtained. Cell culture reagents were obtained from Gibco/Invitrogen, and cells were grown in OPTIMEM supplemented with 10% FBS, Penicillin (100 units/mil)-Streptomycin (100 μg/ml) and 500 μg/ml G418 as previously described (Ostrerova-Golts et al., J. Neurosci., 20:6048-6054, 2000).
Research has shown that the accumulation of α-synuclein fibrils in Lewy bodies contributes mechanistically to the degradation of neurons in Parkinson's disease and related disorders (Polymeropoulos et al., Science 276:2045-2047, 1997; Kruger et al., Nature Genet. 18:106-108, 1998). Here, the XTT Cytotoxicity assay (hereafter referred to as the XTT assay) was used to measure the ability of test compounds to protect against rotenone-induced cytotoxicity (neuroprotective ability). The assay is based on the principle that conversion of the yellow tetrazolium salt XTT to form an orange formazan dye (that absorbs light around 490 nm) occurs only in metabolically active, viable cells. Therefore, light absorbance at 490 nm is proportional to cell viability. For this assay, cells were plated in 96 well tissue culture dishes at 10^4 cells per well. After 24 hours, cells were treated with 500 nM or 2 μM rotenone, or vehicle (0.05% DMSO) as indicated. Immediately after rotenone addition, compounds were added at the indicated concentration. […] Untreated cells received cell culture media only (no compound, with or without rotenone). After 40-44 hours of treatment, conditioned media was removed and replaced with 100 μl fresh media and 50 μl XTT labeling reaction mixture according to the manufacturer's recommendations. Four to five hours later, the absorbance at 490 nm was measured and corrected for absorbance at the 700 nm reference wavelength. […] Percent inhibition of cell death was calculated as the proportion of the rotenone-induced absorbance (viability) decrease that was eliminated by test compound treatment.

[2] = test system: BE-M17 human neuroblastoma cells overexpressing A53T α-synuclein; assay: Thioflavin S aggregation assay in rotenone-treated cells; type: cell-based; conditions: 500 nM, 1 μM or 5 μM rotenone (FIGS. 4A-E)
Excerpt: as §1, §2
Thioflavin S is commonly used to detect amyloid-containing structures in situ, including in brain tissue (Vallet et al., Acta Neuropathol., 83:170-178, 1992), and cultured cells (Ostrerova-Golts et al., J. Neurosci., 20:6048-6054, 2000), whereas thioflavin T is often used as an in vitro reagent to analyze the aggregation of soluble amyloid proteins into fibrils enriched in β-pleated sheet structures (LeVine III, Prot. Sci., 2:404-410, 1993). Therefore, Thioflavin S histochemistry was used on cultured cells to detect aggregates containing a high degree of […] structures that formed in response to oxidative stress-inducing agents (in this case rotenone) as previously described, with minor modifications (Ostrerova-Golts et al., J. Neurosci, 20:6048-6054, 2000). Briefly, for these studies, cells were grown on Poly-D-Lysine coated glass slide chambers at approximately 3×10^4 cells/cm^2. After 24 hours, cells were treated with 500 nM, 1 μM or 5 μM rotenone (Sigma) or vehicle (0.05% DMSO) as indicated. Immediately after rotenone (or vehicle) addition, compounds were added at the indicated concentration, or cell culture media only (no compound) in the presence of rotenone was added. Identical treatments were repeated after 48 hours. After an additional 48 hours, cells were fixed for 25 minutes in 3% paraformaldehyde. After a PBS wash, the cells were incubated with 0.015% thioflavin S in 50% ethanol for 25 minutes, washed twice for four minutes in 50% ethanol and twice for five minutes in deionized water and then mounted using an aqueous-based mountant designed to protect against photobleaching. Aggregates that bind to thioflavin S were detected with a fluorescent microscope using a High Q FITC filter set (480 to 535 nm bandwidth) and a 20× objective lens unless otherwise indicated. Between 8 and 16 representative images per condition were selected, imaged and processed by an experimenter who was blinded to treatment conditions. To assess the amount of thioflavin S-positive aggregates, the total area per field covered by thioflavin S-positive inclusions was determined. […] Spurious, non-cell associated fluorescence was manually removed. Unless indicated otherwise, data represent group means ±SEM. Statistical analyses were performed with GraphPad Prism (GraphPad Inc). Differences between means (two samples) were assessed by the […]. Differences among multiple means were assessed by one-factor ANOVA followed by Tukey's multiple comparison test.

## C=C(C)[C@H]1Cc2c(ccc3c2O[C@@H]2COc4cc(OC)c(OC)cc4[C@@H]2C3=O)O1 [rotenone, reference compound]
[1]; 500 nM rotenone
  decrease of viability relative to untreated cells: 30-40%
[1]; 2 μM rotenone
  decrease of viability relative to untreated cells: 40-50%
[2]
  thioflavin S-positive aggregates relative to vehicle-treated control cells: dose-dependent increase in thioflavin S-positive aggregates
